Read-outs that look alike come from different tables or passages of the source. One block for each compound: values may come before it.
Legend:
[1] = Rat bioavailability of the indanolic ring hydroxy prodrug, mother compound in plasma by LC-MS; type: in vivo, rats
Procedure: Bioavailability of the ring indanolic ring hydroxy compound of Example B-1 was assessed in rats by the procedure of Biological Example 5 also using a propylene glycol vehicle, 58 mg/kg (0.047 mmol/kg), but wherein the mother compound N1, N6-di [(1S,2R)-2-hydroxy-2,3-dihydro-1-H-1-indenyl]-(2R, 3R, 5R)-2,5-di(benzyloxy)-3,4-dihydroxyhexanediamide was assayed by LC-MS using SiM (single ion monitoring) with M/Z ion detector 653. Plasma results are presented as μM in the table below: […]

[2] = rat, in vivo, po
Procedure: At 30, 60, 120, 240 & 360 minutes, 0.2 ml blood were collected, centrifuged and frozen for later analysis. […] Aliquots comprising 40–100 μl of each plasma sample are mixed with an equal volume of acetonitrile (10 seconds, Vibrofex). The sample is centrifuged (2 min, 14000 RPM) and 30 μl of the supernatant is injected into an HPLC system, as follows.

[3] = Rat pharmacokinetics: FLG in serum after oral prodrug, absolute oral bioavailability; settings: in vivo
Excerpt: (§1) Biomed. Anal. 13, 369–376.

[4] = system: duck hepatitis B virus (DHBV); experiment: DHBV model in ducks, serum DHBV DNA by dot blot-hybridisation; type: in vivo
Excerpt: The activity of antivirals on duck hepatitis B virus (DHBV) in ducks is an acknowledged animal model for the validation of in vivo hepatitis B activity in humans. […] The results are depicted in FIGS. […] The ducks were two days old when inoculated with DHBV and 18 days old when treatment was commenced. The metabolite and PBS (controls) were given intraperitoneally for 10 days as twice daily injections, at 8 am and 4 pm. Treatment lasted 33 days and the animals were followed 5 weeks after the end of treatment.
The efficacy of treatment was followed by dot blot-hybridisation of DHBV DNA in serum using a radioactive probe and the amount of DHBV measured as the amount of radioactivity hybridised. FIG. 1 plots the amount of DHBV DNA in serum at different timepoints before, during and after treatment.

HIV-1111B = experiment: XTT dye uptake assay utilising MT4 cells; type: cell-based, HIV-1; settings: Human immunodeficiency virus 1, MT4, read-out: IC50, concentration of metabolite inducing 50% inhibition of viral replication
Excerpt: (§2) In the XTT dye uptake assay of Koshida et al Antimicrob Agents Chemother.

HIV-1111B TIBO^r = experiment: XTT dye uptake assay utilising MT4 cells; type: cell-based, HIV-1; settings: Human immunodeficiency virus 1, MT4, read-out: IC50, concentration of metabolite inducing 50% inhibition of viral replication
Excerpt: as §2

[5] = Weight gain of treated DHBV-infected ducks (toxicity); type: in vivo
Excerpt: The activity of antivirals on duck hepatitis B virus (DHBV) in ducks is an acknowledged animal model for the validation of in vivo hepatitis B activity in humans. […] The ducks were two days old when inoculated with DHBV and 18 days old when treatment was commenced. […] Treatment lasted 33 days and the animals were followed 5 weeks after the end of treatment.

[6] = FLG itself; **literature value; cited from earlier work
SIVSM = experiment: XTT dye uptake assay utilising MT4 cells; type: cell-based, SIV; settings: Simian immunodeficiency virus, read-out: IC50, concentration of metabolite inducing 50% inhibition of viral replication
Excerpt: as §2

[7] = Protein binding in serum samples; type: in vitro ADME
Excerpt: as §1

HIV-1^2441 AZT^r = experiment: XTT dye uptake assay utilising MT4 cells; type: cell-based; settings: Human immunodeficiency virus 1, MT4, read-out: IC50, concentration of metabolite inducing 50% inhibition of viral replication
Excerpt: as §2

HIV-2SBL6669 = experiment: XTT dye uptake assay utilising MT4 cells; type: cell-based; settings: Human immunodeficiency virus 2, read-out: IC50, concentration of metabolite inducing 50% inhibition of viral replication
Excerpt: as §2

HIV-1^29/9 = experiment: XTT dye uptake assay utilising MT4 cells; type: cell-based; settings: Human immunodeficiency virus 1, read-out: IC50, concentration of metabolite inducing 50% inhibition of viral replication
Excerpt: as §2

[8] = Bioavailability of FLG as detected by the present inventors; settings: in vivo; FLG itself
Excerpt: International patent application no. […] The former compound FLG is very active in vitro however the present inventors have detected that its bioavailability is so poor-around 4%-that the in vivo utility of the compound has thus far been limited to intraperitoneally or subcutaneously administered animal models.

SMILES: CC(C)C(N)C(=O)OC1Cc2ccccc2C1NC(=O)[C@H](OCc1ccccc1)C(O)C(O)[C@@H](OCc1ccccc1)C(=O)N[C@H]1c2ccccc2CC1OC(=O)C(N)C(C)C (some centres unmarked)
bioavailability ([1]; rats, same assay, comparator dosed itself): below the level of detection

SMILES: CCCCCCCCCCCCCCCCCC(=O)OCC(CCCC(=O)OC[C@H]1O[C@@H](n2cnc3c(=O)[nH]c(N)nc32)C[C@@H]1F)COC(=O)[C@@H](N)C(C)C (stereo partly drawn) [Example 12, 2′ 3′-dideoxy-3′-fluoro-5′-O-[5-(L-valyloxymethyl)-6-stearoyloxyhexanoyl]guanosine]
6 h absolute bioavail. % [3]: 29%

SMILES: CCCCCCCCCCCCCCCCCC(=O)OCC(COC(=O)[C@@H](N)C(C)C)CC(=O)OC[C@H]1O[C@@H](n2cnc3c(=O)[nH]c(N)nc32)C[C@@H]1F (some centres unmarked) [Example 13]
6 h absolute bioavail. % [3]: 37%

SMILES: Nc1nc2c(ncn2[C@H]2C[C@H](F)[C@@H](CO)O2)c(=O)[nH]1 [FLG, 2′,3′-dideoxy, 3′-fluoroguanosine]
inhibition of DHBV in vivo ([4]; 0.3 mg/kg/day): considerable inhibition of DHBV in vivo
amount of DHBV DNA in serum during treatment ([4]; 5 mg/kg/day intraperitoneally, twice daily injections): dramatic decrease in the amount of DHBV in serum during the first 10 days of treatment, whereupon for the remainder of treatment the level of DHBV DNA was below the detection limit
DHBV in serum after the finish of treatment ([4]; after the finish of treatment, followed 5 weeks): virus reappeared in the serum
serum DHBV DNA during treatment ([4]; repeat experiments at 30 and 3 mg/kg/day and with congenitally infected ducks): dramatic fall in serum DHBV DNA to under the detection threshold
IC50 (HIV-1111B): 1 µg/mL
IC50 (HIV-1111B TIBO^r): 1 µg/mL
weight of the ducks during treatment ([5]; 5 mg/kg/day, compared with PBS treated controls): increased in the same way as in the control
toxicity judged from growth rate ([5]; ducks, treatment period): clearly non-toxic
12 h absolute bioavail. % [6]: 9%**
IC50 (SIVSM): 1 µg/mL
protein binding [7]: neglible
IC50 (HIV-1^2441 AZT^r): 1 µg/mL
IC50 (HIV-2SBL6669): 2 µg/mL
IC50 (HIV-1^29/9): 0.7 µg/mL
bioavailability [8]: ~4%

The remaining lines, values ahead:

Bioavailability0–6 hours [2]: 34%
SMILES: CCC(=O)c1ccc(F)c([C@@H]2C[C@@H]2NC(=O)Nc2ccc(C#N)cn2)c1OCOC(=O)[C@@H](N)[C@@H](C)CC (relative stereo) [Example P-1, (1S. 2S)-N-{cis-2-[6-fluoro-2-(L-isoleucyloxymethyloxy)-3-propionylphenyl]cyclopropyl}-N′-[2-(5-cyanopyridyl)]urea]

6 h absolute bioavail. % [3]: 81.5%
SMILES: CCCCCCCCCCCCCCCCCC(=O)OC(COC(=O)[C@@H](N)C(C)C)C(=O)OC[C@H]1O[C@@H](n2cnc3c(=O)[nH]c(N)nc32)C[C@@H]1F (some centres unmarked) [Example 25]

12 h absolute bioavail. % [3]: 67.5%
SMILES: CC(C)[C@H](N)C(=O)OCC(COC(=O)[C@@H](N)C(C)C)CC(=O)OC[C@H]1O[C@@H](n2cnc3c(=O)[nH]c(N)nc32)C[C@@H]1F [Example 26, 2′, 3′-Dideoxy-3′-fluoro-5′-O-[3,3-bis(L-valyloxymethyl)-propionic acid] guanosine]

6 h absolute bioavail. % [3]: 51%
SMILES: CC(C)[C@H](N)C(=O)OCC(COC(=O)[C@@H](N)C(C)C)OC(=O)CCC(=O)OC[C@H]1O[C@@H](n2cnc3c(=O)[nH]c(N)nc32)C[C@@H]1F [Example 29, 2′, 3′-Dideoxy-3′-fluoro-5′-O-3-[1,3-bis-(L-valyloxy]-2-propyloxycarbonylpropanoyl]guanosine]

bioavailability ([1]; rat, in vivo): below level of detection
SMILES: O=C(N[C@H]1c2ccccc2C[C@H]1O)[C@H](OCc1ccccc1)C(O)[C@@H](O)[C@@H](OCc1ccccc1)C(=O)N[C@H]1c2ccccc2C[C@H]1O (stereo partly drawn) [mother compound, N1, N6-di [(1S,2R)-2-hydroxy-2,3-dihydro-1-H-1-indenyl]-(2R, 3R, 5R)-2,5-di(benzyloxy)-3,4-dihydroxyhexanediamide]

From patent publication US7071173B2, “Antiviral methods employing double esters of 2′, 3′-dideoxy-3′-fluoroguanosine” (Medivir AB, priority 1998, dated 2006)
